For this assay, the target named is T1, human PDE9A2 (Homo sapiens, UniProt O76083).
T1 construct: made in house; host or cells: Sf9 insect cells (infected); crude lysate used as enzyme source
Description: PDE9A2 enzymatic activity assay (scintillation proximity assay, SPA). The class given is biochemical. The conditions noted are these: for inhibition at 10 µM: read-out: % inhibition of PDE9A2 (at 10 micromolar concentration), 10 micromolar concentration; for inhibition at 10 µM / % inhibition of PDE9A2 (at 10 micromolar concentration): values above 100% adjusted to 100%; for IC50: reported only as range 1-100 or 101-1200 nanomolar, specific value lies within range, read-out: IC50 within range [nanomolar (nM)].

T1 sequence (O76083 1-533 isoform O76083-2): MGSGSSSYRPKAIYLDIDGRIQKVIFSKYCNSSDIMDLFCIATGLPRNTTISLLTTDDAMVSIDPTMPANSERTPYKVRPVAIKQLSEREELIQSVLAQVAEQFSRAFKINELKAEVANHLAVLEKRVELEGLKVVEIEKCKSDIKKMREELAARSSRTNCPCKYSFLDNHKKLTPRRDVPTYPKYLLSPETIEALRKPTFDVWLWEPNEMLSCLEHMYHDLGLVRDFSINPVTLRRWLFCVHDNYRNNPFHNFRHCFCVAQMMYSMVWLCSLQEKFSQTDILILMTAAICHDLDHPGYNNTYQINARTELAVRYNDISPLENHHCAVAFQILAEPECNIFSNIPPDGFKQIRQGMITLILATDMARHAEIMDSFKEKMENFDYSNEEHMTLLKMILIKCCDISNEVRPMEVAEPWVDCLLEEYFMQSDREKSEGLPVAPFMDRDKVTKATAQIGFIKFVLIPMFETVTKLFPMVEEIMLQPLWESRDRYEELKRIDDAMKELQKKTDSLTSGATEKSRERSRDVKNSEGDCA

Regarding `O=C(c1ccccc1)N1CCCC(n2ncc3c(=O)[nH]c(Cc4ccccn4)nc32)C1` (racemic) [Example 175], the inhibition at 10 µM is 88% and the IC50 – broadly, the midpoint of a concentration-inhibition curve – was in the range of 101 to 1200 nM.

On to `CC(=O)N1CCCC(n2ncc3c(=O)[nH]c(Cc4ccccn4)nc32)C1` (racemic) [Example 176], for which the inhibition at 10 µM was found to be 85% and the IC50 was 101 to 1200 nM.

With `CC(C)Cc1nc2c(cnn2C2CCCN(C(=O)c3ccccc3)C2)c(=O)[nH]1` (racemic) [Example 177], the inhibition at 10 µM amounted to 93% and the concentration for half-maximal inhibition (IC50) is 101 to 1200 nM.

Consider `CCOc1ccccc1Cc1nc2c(cnn2C2CCCN(C(=O)c3ccccc3)C2)c(=O)[nH]1` (racemic) [Example 178], for which the inhibition at 10 µM is 92% and the IC50 is 101 to 1200 nM.

Take `CCOc1ccccc1Cc1nc2c(cnn2C2CCCN(C(C)=O)C2)c(=O)[nH]1` (racemic) [Example 179]: the inhibition at 10 µM came out at 91% and the concentration for half-maximal inhibition (IC50) was 101 to 1200 nM.

For `CC(=O)N1CCCC(n2ncc3c(=O)[nH]c(CC4CCC4)nc32)C1` (racemic) [Example 180], the inhibition at 10 µM amounted to 96% and the half-maximal inhibitory concentration (IC50) was 101 to 1200 nM.

With `O=C(c1ccccc1)N1CCCC(n2ncc3c(=O)[nH]c(CC4CCC4)nc32)C1` (racemic) [Example 181], the inhibition at 10 µM was 96% and the concentration for half-maximal inhibition (IC50) lay in the range of 1 to 100 nM.

For `O=C(c1ccccc1)N1CCCC(n2ncc3c(=O)[nH]c(Cc4ccccc4)nc32)C1` (racemic) [Example 182], the inhibition at 10 µM was determined as 100% and the concentration for half-maximal inhibition (IC50) is 1 to 100 nM.

Turning to `O=C(c1ccccc1)N1CCCC(n2ncc3c(=O)[nH]c(CC4CCCC4)nc32)C1` (racemic) [Example 183], the inhibition at 10 µM came out at 99% and the IC50 lay within 1 to 100 nM.

Consider `CC(=O)N1CCCC(n2ncc3c(=O)[nH]c(Cc4cccc(C(F)(F)F)c4)nc32)C1` (racemic) [Example 184], for which the inhibition at 10 µM amounted to 97% and the IC50 lay in the range of 1 to 100 nM.

With `O=C(Oc1ccc(F)cc1)N1CCCC(n2ncc3c(=O)[nH]c(Cc4ccccc4)nc32)C1` (racemic) [Example 185], the inhibition at 10 µM is 100% and the IC50 lay in the range of 1 to 100 nM.

Consider `O=C(c1ccccc1)N1CCCC(n2ncc3c(=O)[nH]c(Cc4ccccc4F)nc32)C1` (racemic) [Example 186], for which the inhibition at 10 µM came to 97% and the IC50 was 1 to 100 nM.

In the case of `CC(=O)N1CCCC(n2ncc3c(=O)[nH]c(Cc4ccccc4F)nc32)C1` (racemic) [Example 187], the inhibition at 10 µM worked out at 96% and the concentration for half-maximal inhibition (IC50) lay in the range of 1 to 100 nM.

As for `CC(=O)N1CCCC(n2ncc3c(=O)[nH]c(Cc4ccccc4OC(F)(F)F)nc32)C1` (racemic) [Example 188], the inhibition at 10 µM was found to be 96% and the IC50 was in the range of 1 to 100 nM.

Take `CC(=O)N1CCCC(n2ncc3c(=O)[nH]c(CC(C)C)nc32)C1` (racemic) [Example 189]: the inhibition at 10 µM is 90% and the 50% inhibitory concentration (IC50) was in the range of 101 to 1200 nM.

Regarding `CN(C)C(=O)N1CCC(n2ncc3c(=O)[nH]c(Cc4ccccc4)nc32)C1` (racemic) [Example 190], the inhibition at 10 µM was found to be 82% and the half-inhibitory concentration (IC50) was in the range of 101 to 1200 nM.

On to `O=c1[nH]c(CC2CCCC2)nc2c1cnn2C1CCCN(CC(F)(F)F)C1` (racemic) [Example 191], for which the inhibition at 10 µM came out at 92% and the IC50 is 101 to 1200 nM.

With `O=c1[nH]c(CC2CCC2)nc2c1cnn2C1CCCN(CC(F)(F)F)C1` (racemic) [Example 192], the inhibition at 10 µM is 100% and the IC50 is 101 to 1200 nM.

For the compound `O=c1[nH]c(CC2CCCC2)nc2c1cnn2C1CCCN(CC(F)F)C1` (racemic) [Example 193], the inhibition at 10 µM came to 99% and the IC50 lay in the range of 101 to 1200 nM.

Consider `O=c1[nH]c(CC2CCCC2)nc2c1cnn2C1CCNC1` (racemic) [Example 194], for which the inhibition at 10 µM was determined as 97% and the IC50 was in the range of 101 to 1200 nM.

Regarding `O=c1[nH]c(CC2CCCC2)nc2c1cnn2C1CCCNC1` (racemic) [Example 196], the inhibition at 10 µM turned out to be 91% and the concentration for half-maximal inhibition (IC50) was 101 to 1200 nM.

Consider `O=c1[nH]c(Cc2ccccc2)nc2c1cnn2C1CCCNC1` (racemic) [Example 197], for which the inhibition at 10 µM was 91% and the IC50 lay in the range of 101 to 1200 nM.

Consider `O=c1[nH]c(Cc2ccccc2OC(F)(F)F)nc2c1cnn2C1CCCNC1` (racemic) [Example 198], for which the inhibition at 10 µM amounted to 100% and the IC50 is 101 to 1200 nM.

For the compound `O=c1[nH]c(Cc2ccccc2)nc2c1cnn2C1CCNC1` (racemic) [Example 199], the inhibition at 10 µM amounted to 88% and the half-inhibitory concentration (IC50) lay within 101 to 1200 nM.

With `O=c1[nH]c(Cc2ccccc2OC(F)(F)F)nc2c1cnn2C1CCNC1` (racemic) [Example 200], the inhibition at 10 µM stood at 91% and the concentration for half-maximal inhibition (IC50) is 101 to 1200 nM.

For `O=c1[nH]c(CC2CCC2)nc2c1cnn2C1CCNC1` (racemic) [Example 201], the inhibition at 10 µM turned out to be 85% and the 50% inhibitory concentration (IC50) was 101 to 1200 nM.

Regarding `O=c1[nH]c(Cc2ccccc2F)nc2c1cnn2C1CCCNC1` (racemic) [Example 204], the inhibition at 10 µM worked out at 87% and the IC50 was in the range of 101 to 1200 nM.

On to `O=c1[nH]c(Cc2cccc(C(F)(F)F)c2)nc2c1cnn2C1CCCNC1` (racemic) [Example 205], for which the inhibition at 10 µM stood at 100% and the IC50 lay in the range of 1 to 100 nM.

In the case of `O=c1[nH]c(CC2CCC2)nc2c1cnn2C1CCCNC1` (racemic) [Example 206], the inhibition at 10 µM was found to be 82% and the IC50 was in the range of 101 to 1200 nM.

Consider `CN1CCC(n2ncc3c(=O)[nH]c(CC4CCCC4)nc32)C1` (racemic) [Example 207], for which the inhibition at 10 µM came to 100% and the half-inhibitory concentration (IC50) fell in the range of 1 to 100 nM.

Consider `CN1CCCC(n2ncc3c(=O)[nH]c(CC4CCCC4)nc32)C1` (racemic) [Example 208], for which the inhibition at 10 µM was 100% and the 50% inhibitory concentration (IC50) fell in the range of 101 to 1200 nM.

With `CN1CCCC(n2ncc3c(=O)[nH]c(Cc4ccccc4OC(F)(F)F)nc32)C1` (racemic) [Example 209], the inhibition at 10 µM amounted to 89% and the IC50 lay within 101 to 1200 nM.

On to `CN1CCC(n2ncc3c(=O)[nH]c(Cc4ccccc4)nc32)C1` (racemic) [Example 210], for which the inhibition at 10 µM was determined as 97% and the half-maximal inhibitory concentration (IC50) lay within 1 to 100 nM.

In the case of `CN1CCC(n2ncc3c(=O)[nH]c(Cc4ccccc4OC(F)(F)F)nc32)C1` (racemic) [Example 211], the inhibition at 10 µM was determined as 99% and the IC50 was 1 to 100 nM.

For `COc1ccccc1Cc1nc2c(cnn2C2CCN(C)C2)c(=O)[nH]1` (racemic) [Example 212], the inhibition at 10 µM worked out at 92% and the concentration for half-maximal inhibition (IC50) was 101 to 1200 nM.

As for `CN1CCC(n2ncc3c(=O)[nH]c(CC4CCC4)nc32)C1` (racemic) [Example 214], the inhibition at 10 µM turned out to be 98% and the IC50 was in the range of 1 to 100 nM.

As for `CN1CCCC(n2ncc3c(=O)[nH]c(Cc4ccccc4)nc32)C1` (racemic) [Example 215], the inhibition at 10 µM amounted to 93% and the IC50 fell in the range of 101 to 1200 nM.

`CN1CCCC(n2ncc3c(=O)[nH]c(Cc4cccc(C(F)(F)F)c4)nc32)C1` (racemic) [Example 216]: the inhibition at 10 µM turned out to be 96% and the concentration for half-maximal inhibition (IC50) was 1 to 100 nM.

`CN1CCCC(n2ncc3c(=O)[nH]c(Cc4ccccc4F)nc32)C1` (racemic) [Example 217]: the inhibition at 10 µM is 97% and the IC50 fell in the range of 101 to 1200 nM.

Take `CN1CCCC(n2ncc3c(=O)[nH]c(CC4CCC4)nc32)C1` (racemic) [Example 218]: the inhibition at 10 µM turned out to be 88% and the IC50 was in the range of 101 to 1200 nM.

For the compound `CCC(Cc1nc2c(cnn2C2CCOCC2)c(=O)[nH]1)C(F)(F)F` (single isomer, unassigned) [Example 61], the inhibition at 10 µM was 97% and the IC50 was 1 to 100 nM.

On to `CCC(Cc1nc2c(cnn2C2CCOCC2)c(=O)[nH]1)C(F)(F)F` (single isomer, unassigned) [Example 62], for which the “% inhibition of PDE9A2 (at 10 micromolar concentration)” value (“% inhibition of PDE9A2” below) was 95% and the IC50 lay in the range of 1 to 100 nM.

As to `CC(Cc1nc2c(cnn2C2CCOCC2)c(=O)[nH]1)C(F)(F)F` (single isomer, unassigned) [Example 131], the inhibition at 10 µM is 97% and the IC50 lay within 1 to 100 nM.

With `CC(C)Cc1nc2c(cnn2C2CCOC2)c(=O)[nH]1` (single isomer, unassigned) [Example 132-3], the inhibition at 10 µM was determined as 89% and the IC50 is 101 to 1200 nM.

Turning to `CC(C)Cc1nc2c(cnn2C2CCOC2)c(=O)[nH]1` (single isomer, unassigned) [Example 132-4], the “% inhibition of PDE9A2” value is listed as 98% and the IC50 lay within 1 to 100 nM.

Consider `O=c1[nH]c(CC2CCC2)nc2c1cnn2C1CCOC1` (single isomer, unassigned) [Example 132-6], for which the inhibition at 10 µM stood at 99% and the IC50 fell in the range of 1 to 100 nM.

With `O=c1[nH]c(Cc2ccccn2)nc2c1cnn2C1CCOC1` (single isomer, unassigned) [Example 132-7], the inhibition at 10 µM was 94% and the IC50 lay in the range of 1 to 100 nM.

In the case of `O=c1[nH]c(CC2CCC2)nc2c1cnn2C1CCOC1` (single isomer, unassigned) [Example 132-9], the “% inhibition of PDE9A2” value turned out to be 95% and the IC50 fell in the range of 101 to 1200 nM.

Turning to `CC(Cc1nc2c(cnn2C2CCOCC2)c(=O)[nH]1)C(F)(F)F` (single isomer, unassigned) [Example 132], the “% inhibition of PDE9A2” value is reported as 90% and the concentration for half-maximal inhibition (IC50) fell in the range of 101 to 1200 nM.

In the case of `O=c1[nH]c(CC2CCCCCC2)nc2c1cnn2C1CCOCC1` [Example 1], the inhibition at 10 µM is 100% and the IC50 fell in the range of 1 to 100 nM.

For the compound `Cc1ccccc1Cc1nc2c(cnn2C2CCOCC2)c(=O)[nH]1` [Example 2], the inhibition at 10 µM is 99% and the 50% inhibitory concentration (IC50) is 1 to 100 nM.

On to `CC(C)CCc1nc2c(cnn2C2CCOCC2)c(=O)[nH]1` [Example 3], for which the inhibition at 10 µM was 99% and the IC50 lay within 1 to 100 nM.
